In patent US20240239771A1, “BACTERIAL EFFLUX PUMP INHIBITORS” (priority 2020, published 2024):
Where a name gives a salt, the structure may show the parent alone. Values belong to the compound of their own block, whether it stands above or below them.

Assays:
[1] = test system: Pseudomonas aeruginosa ATCC 27853; test: Intrinsic MIC assay (CLSI broth microdilution); assay type: cell-based; conditions: ATCC27853, read-out: Intrinsic MIC of Compound
Procedure: MIC assays were conducted in accordance with Clinical and Laboratory Standards Institute (CLSI) guidelines for broth microdilution. A 96-well plate containing cation-adjusted Mueller-Hinton (CAMH broth with 2-fold serial dilution of compounds was inoculated with log-phase bacterial at 5×10^5 CFU/mL. The final volume in each well was 100 μL. Each compound was tested in duplicate. The microtiter plates were incubated in an aerobic environment for 18 hours at 37° C. Then the bacterial growth was tested by reading the plate with a VersaMax plate reader (Molecular Devices, Inc.) at 600 nm. The MIC was defined as the lowest compound concentration that inhibited 90% of bacteria growth.
The intrinsic MIC of the experimental EPIs was tested with the method described. The 2-fold serial dilution begins with 100 μg/mL of tested compound in the first column of the 96-well plates. The following Gram-negative bacterial strain was included in these assays: Pseudomonas aeruginosa ATCC 27853.

[2] = test system: Pseudomonas aeruginosa ATCC 27853; test: Standard EPI assay: MIC of test antibiotic in absence and presence of EPI; assay type: cell-based; conditions: for Enhanced Antibiotic's Activity (fold increase), Ceftazidime: ceftazidime with compound at 6.25 μg/mL, relative to MIC without EPI (2 μg/mL); for Enhanced Antibiotic's Activity (fold increase), Doxycycline: doxycycline with compound at 6.25 μg/mL, relative to MIC without EPI (32 μg/mL); for Enhanced Antibiotic's Activity (fold increase), Levofloxacin: levofloxacin with compound at 6.25 μg/mL, relative to MIC without EPI (1 μg/mL); for MIC of antibiotic in the absence of EPI: antibiotic alone, P. aeruginosa ATCC 27853
Procedure: The EPI assay for the purposes of these studies represents a MIC assay in which the MIC of the antibiotic against the bacteria is tested in the presence of an experimental efflux pump inhibitor (EPI). The highest concentration of the EPI present in the assay typically is ½ of the intrinsic MIC of the compound. If the intrinsic MIC of the EPI is greater than 100 μg/mL, the EPI assay was tested with 50 μg/mL. Using serial dilutions of the EPI, its enhancement of antibiotic activity was then evaluated. The relative EPI activity was decided by comparing the MIC of the antibiotic in the presence of the EPI compound with the intrinsic MIC of the antibiotic alone.
The impact of the EPIs on the MIC values of three test antibiotics (levofloxacin, ceftazidime and doxycycline) against P. aeruginosa ATCC 27853 were evaluated using our standard EPI assay. All three antibiotics levofloxacin, ceftazidime and doxycycline are known substrates of efflux pumps in P. aeruginosa, and are thus well-suited to be test antibiotics to assay for EPI activity.
In our standard EPI assay, the MIC of the test antibiotic is determined in the absence and presence of sub-inhibitory concentrations of the EPI. […] The MIC of levofloxacin against P. aeruginosa ATCC 27853 in the absence of EPI is 1 μg/mL. […] Similarly, the MIC of ceftazidime against P. aeruginosa ATCC 27853 in the absence of EPI is 2 μg/mL. In the presence of 6.25 μg/mL of the Example 4, the MIC of ceftazidime was reduced to 0.5 μg/mL, a 4-fold reduction. […] For all the examples in Table 1, the potentiation activities are determined at 6.25 μg/mL.

SMILES: NCC[C@@H](O)[C@@H](N)CNC(=O)c1[nH]c2ccccc2c1-c1ccc(F)cc1 [Example 1, N-((2S,3R)-2,5-diamino-3-hydroxypentyl)-3-(4-fluorophenyl)-1H-indole-2-carboxamide hydrogen chloride salt]
MIC [1]: > 100 µg/mL
Enhanced Antibiotic's Activity (fold increase), Ceftazidime [2]: 1 fold
Enhanced Antibiotic's Activity (fold increase), Doxycycline [2]: 16 fold
Enhanced Antibiotic's Activity (fold increase), Levofloxacin [2]: 8 fold

SMILES: NCCC(O)[C@@H](N)CNC(=O)c1[nH]c2ccccc2c1-c1ccccc1 (stereo partly drawn) [Example 2, N-((2S)-2,5-diamino-3-hydroxypentyl)-3-phenyl-1H-indole-2-carboxamide hydrogen chloride salt]
MIC [1]: > 100 µg/mL
Enhanced Antibiotic's Activity (fold increase), Doxycycline [2]: 16 fold
Enhanced Antibiotic's Activity (fold increase), Levofloxacin [2]: 8 fold

SMILES: NCCC(O)[C@@H](N)CNC(=O)c1[nH]c2ccccc2c1C1CCCC1 (stereo partly drawn) [Example 4, 3-cyclopentyl-N-((2S)-2,5-diamino-3-hydroxypentyl)-1H-indole-2-carboxamide hydrogen chloride salt]
MIC [1]: > 100 µg/mL
Enhanced Antibiotic's Activity (fold increase), Ceftazidime [2]: 4 fold
Enhanced Antibiotic's Activity (fold increase), Doxycycline [2]: 32 fold
Enhanced Antibiotic's Activity (fold increase), Levofloxacin [2]: 32 fold

SMILES: NCCC(O)[C@@H](N)CNC(=O)c1[nH]c2ccc(F)cc2c1C1CCCCC1 (stereo partly drawn) [Example 5, 3-cyclohexyl-N-((2S)-2,5-diamino-3-hydroxypentyl)-5-fluoro-1H-indole-2-carboxamide hydrogen chloride salt]
MIC [1]: 50 µg/mL
Enhanced Antibiotic's Activity (fold increase), Ceftazidime [2]: 16 fold
Enhanced Antibiotic's Activity (fold increase), Doxycycline [2]: 32 fold
Enhanced Antibiotic's Activity (fold increase), Levofloxacin [2]: 32 fold

SMILES: NCCC(O)[C@@H](N)CNC(=O)c1[nH]c2ccccc2c1C1CCC(F)(F)CC1 (stereo partly drawn) [Example 6, N-((2S)-2,5-diamino-3-hydroxypentyl)-3-(4,4-difluorocyclohexyl)-1H-indole-2-carboxamide hydrogen chloride salt]
MIC [1]: 100 µg/mL
Enhanced Antibiotic's Activity (fold increase), Ceftazidime [2]: 4 fold
Enhanced Antibiotic's Activity (fold increase), Doxycycline [2]: 16 fold
Enhanced Antibiotic's Activity (fold increase), Levofloxacin [2]: 64 fold

SMILES: NCCC(O)[C@@H](N)CNC(=O)c1[nH]c2ccccc2c1-c1ccccc1F (stereo partly drawn) [Example 7, N-((2S)-2,5-diamino-3-hydroxypentyl)-3-(2-fluorophenyl)-1H-indole-2-carboxamide hydrogen chloride salt]
MIC [1]: > 100 µg/mL
Enhanced Antibiotic's Activity (fold increase), Ceftazidime [2]: 1 fold
Enhanced Antibiotic's Activity (fold increase), Doxycycline [2]: 4 fold
Enhanced Antibiotic's Activity (fold increase), Levofloxacin [2]: 2 fold

SMILES: NCC(O)C[C@H](N)CNC(=O)c1[nH]c2ccc(F)cc2c1-c1ccccc1Cl (stereo partly drawn) [Example 8, 3-(2-chlorophenyl)-N-((2S)-2,5-diamino-4-hydroxypentyl)-5-fluoro-1H-indole-2-carboxamide hydrogen chloride salt]
MIC [1]: > 100 µg/mL
Enhanced Antibiotic's Activity (fold increase), Ceftazidime [2]: 2 fold
Enhanced Antibiotic's Activity (fold increase), Doxycycline [2]: 16 fold
Enhanced Antibiotic's Activity (fold increase), Levofloxacin [2]: 16 fold

SMILES: N#Cc1ccc(-c2c(C(=O)NC[C@@H](N)CC(O)CN)[nH]c3ccc(F)cc23)cc1 (stereo partly drawn) [Example 9, 3-(4-cyanophenyl)-N-((2S)-2,5-diamino-4-hydroxypentyl)-5-fluoro-1H-indole-2-carboxamide hydrogen chloride salt]
MIC [1]: > 100 µg/mL
Enhanced Antibiotic's Activity (fold increase), Ceftazidime [2]: 2 fold
Enhanced Antibiotic's Activity (fold increase), Doxycycline [2]: 32 fold
Enhanced Antibiotic's Activity (fold increase), Levofloxacin [2]: 32 fold

SMILES: NCC(O)C[C@H](N)CNC(=O)c1[nH]c2ccccc2c1-c1ccc(F)cc1 (stereo partly drawn) [Example 10, 3-(4-fluorophenyl)-N-((2S)-2,5-diamino-4-hydroxypentyl)-1H-indole-2-carboxamide hydrogen chloride salt]
MIC [1]: 100 µg/mL
Enhanced Antibiotic's Activity (fold increase), Ceftazidime [2]: 4 fold
Enhanced Antibiotic's Activity (fold increase), Doxycycline [2]: 32 fold
Enhanced Antibiotic's Activity (fold increase), Levofloxacin [2]: 16 fold

SMILES: N#Cc1ccc(-c2c(C(=O)NC[C@@H](N)CC(O)CN)[nH]c3ccccc23)cc1 (stereo partly drawn) [Example 11, 3-(4-cyanophenyl)-N-((2S)-2,5-diamino-4-hydroxypentyl)-1H-indole-2-carboxamide hydrogen chloride salt]
MIC [1]: > 100 µg/mL
Enhanced Antibiotic's Activity (fold increase), Ceftazidime [2]: 1 fold
Enhanced Antibiotic's Activity (fold increase), Doxycycline [2]: 16 fold
Enhanced Antibiotic's Activity (fold increase), Levofloxacin [2]: 16 fold

SMILES: NCC(O)C[C@H](N)CNC(=O)c1[nH]c2ccccc2c1-c1ccccc1 (stereo partly drawn) [Example 12, N-((2S)-2,5-diamino-4-hydroxypentyl)-3-phenyl-1H-indole-2-carboxamide hydrogen chloride salt]
MIC [1]: > 100 µg/mL
Enhanced Antibiotic's Activity (fold increase), Ceftazidime [2]: 2 fold
Enhanced Antibiotic's Activity (fold increase), Doxycycline [2]: 32 fold
Enhanced Antibiotic's Activity (fold increase), Levofloxacin [2]: 16 fold

SMILES: NCC(O)C[C@H](N)CNC(=O)c1[nH]c2ccc(F)cc2c1-c1ccccc1 (stereo partly drawn) [Example 13, N-((2S)-2,5-diamino-4-hydroxypentyl)-5-fluoro-3-phenyl-1H-indole-2-carboxamide hydrogen chloride salt]
MIC [1]: > 100 µg/mL
Enhanced Antibiotic's Activity (fold increase), Ceftazidime [2]: 2 fold
Enhanced Antibiotic's Activity (fold increase), Doxycycline [2]: 32 fold
Enhanced Antibiotic's Activity (fold increase), Levofloxacin [2]: 32 fold

SMILES: N#Cc1ccc(-c2c(C(=O)NC[C@@H](N)CC(O)CN)[nH]c3c(F)cccc23)cc1 (stereo partly drawn) [Example 14, 3-(4-cyanophenyl)-N-((2S)-2,5-diamino-4-hydroxypentyl)-7-fluoro-1H-indole-2-carboxamide hydrogen chloride salt]
MIC [1]: > 100 µg/mL
Enhanced Antibiotic's Activity (fold increase), Ceftazidime [2]: 1 fold
Enhanced Antibiotic's Activity (fold increase), Doxycycline [2]: 16 fold
Enhanced Antibiotic's Activity (fold increase), Levofloxacin [2]: 32 fold

SMILES: NCC(O)C[C@H](N)CNC(=O)c1[nH]c2ccccc2c1C1CCCCC1 (stereo partly drawn) [Example 15, 3-cyclohexyl-N-((2S)-2,5-diamino-4-hydroxypentyl)-1H-indole-2-carboxamide hydrogen chloride salt]
MIC [1]: 50 µg/mL
Enhanced Antibiotic's Activity (fold increase), Ceftazidime [2]: 4 fold
Enhanced Antibiotic's Activity (fold increase), Doxycycline [2]: 32 fold
Enhanced Antibiotic's Activity (fold increase), Levofloxacin [2]: 32 fold

SMILES: NCC(CO)C[C@@H](N)CNC(=O)c1[nH]c2ccccc2c1-c1ccc(F)cc1 (stereo partly drawn) [Example 16, N-((2R)-2,5-diamino-4-(hydroxymethyl)pentyl)-3-(4-fluorophenyl)-1H-indole-2-carboxamide hydrogen chloride salt]
MIC [1]: > 100 µg/mL
Enhanced Antibiotic's Activity (fold increase), Ceftazidime [2]: 2 fold
Enhanced Antibiotic's Activity (fold increase), Doxycycline [2]: 32 fold
Enhanced Antibiotic's Activity (fold increase), Levofloxacin [2]: 16 fold

SMILES: NCCOC[C@H](N)CNC(=O)c1[nH]c2ccccc2c1-c1ccc(F)cc1 [Example 19, (R)—N-(2-amino-3-(2-aminoethoxy)propyl)-3-(4-fluorophenyl)-1H-indole-2-carboxamide hydrogen chloride salt]
MIC [1]: > 100 µg/mL
Enhanced Antibiotic's Activity (fold increase), Ceftazidime [2]: 2 fold
Enhanced Antibiotic's Activity (fold increase), Doxycycline [2]: 16 fold
Enhanced Antibiotic's Activity (fold increase), Levofloxacin [2]: 16 fold

SMILES: N#Cc1ccc(-c2c(C(=O)NC[C@@H](N)COCCN)[nH]c3ccc(F)cc23)cc1 [Example 20, (R)—N-(2-amino-3-(2-aminoethoxy)propyl)-3-(4-cyanophenyl)-5-fluoro-1H-indole-2-carboxamide hydrogen chloride salt]
MIC [1]: > 100 µg/mL
Enhanced Antibiotic's Activity (fold increase), Ceftazidime [2]: 2 fold
Enhanced Antibiotic's Activity (fold increase), Doxycycline [2]: 16 fold
Enhanced Antibiotic's Activity (fold increase), Levofloxacin [2]: 16 fold

MIC of antibiotic in the absence of EPI [2]: 2 µg/mL
SMILES: CC(C)(O/N=C(\C(=O)N[C@@H]1C(=O)N2C(C(=O)[O-])=C(C[n+]3ccccc3)CS[C@H]12)c1csc(N)n1)C(=O)O [ceftazidime, Ceftazidime, reference compound]

MIC of antibiotic in the absence of EPI [2]: 32 µg/mL
SMILES: C[C@H]1c2cccc(O)c2C(=O)C2=C(O)[C@]3(O)C(=O)C(C(N)=O)=C(O)[C@@H](N(C)C)[C@@H]3[C@@H](O)[C@@H]21 [doxycycline, Doxycycline, reference compound]

MIC of antibiotic in the absence of EPI [2]: 1 µg/mL
SMILES: C[C@H]1COc2c(N3CCN(C)CC3)c(F)cc3c(=O)c(C(=O)O)cn1c23 [levofloxacin, Levofloxacin, reference compound]
